Columns and labels:
[1] = Redispersibility test: redispersion time and visual condition after standing at 25° C. for 4 days; assay type: physicochemical
Procedure: (§1) Solutions containing a suspending agent in concentrations ranging from 0.000001 to 0.5 w/v % were first prepared. A test drug was added to the solutions to prepare aqueous suspensions. The surface tension of each aqueous suspension thus prepared was measured with the Du Noüy tension meter K122 (Krüss). The suspensions were then filled into 5 ml colorless polypropylene bottles and allowed to stand at 25° C. for 4 days. Each bottle was caused to spin (60 rpm) on the variable mix rotor VMR-5 (60 rpm, manufactured by Iuchi) and the time required for redispersion was measured. In addition, the condition of the redispersed particles was visually examined. As the suspending agent, hydroxypropylmethyl cellulose [Metolose 60SH (TC-5E); manufactured by Shin-Etsu Chemical Co., Ltd.; hereinafter abbreviated as HPMC], methylcellulose (Metolose SM-25; manufactured by Shin-Etsu Chemical Co., Ltd.; abbreviated as MC), or polyvinylpyrrolidone (K30; manufactured by BASF; abbreviated as PVP) was used. As the test drug, fluorometholone 0.05 w/v % or 0.1 w/v % or indomethacin 0.2 w/v % or 1.0 w/v % was used.

[2] = Surface tension of aqueous suspension (Du Noüy tension meter K122); assay type: physicochemical
Procedure: as §1

[3] = indomethacin 0.2 w/v % suspension, HPMC below 0.0001 w/v %
[4] = indomethacin 1.0 w/v % suspension, HPMC less than 0.0005 w/v %
[5] = indomethacin 0.2 w/v % suspension
[6] = indomethacin 1.0 w/v % suspension
[7] = fluorometholone 0.05 w/v % suspension, 0.0001 to 0.002 w/v % HPMC
[8] = fluorometholone 0.1 w/v % suspension, 0.000005 to 0.0001 w/v % HPMC
[9] = fluorometholone 0.1 w/v % suspension, 0.0001 to 0.01 w/v % HPMC
[10] = fluorometholone 0.1 w/v % suspension, 0.0003 to 0.002 w/v % PVP
[11] = fluorometholone 0.1 w/v % suspension, MC 0.0001 w/v % or less
[12] = fluorometholone 0.05 w/v % suspension
[13] = fluorometholone 0.1 w/v % suspension
[14] = fluorometholone 0.1 w/v % suspension, MC
[15] = fluorometholone 0.1 w/v % suspension, PVP

For `COc1ccc2c(c1)c(CC(=O)O)c(C)n2C(=O)c1ccc(Cl)cc1` [indomethacin], the “condition of the redispersed particles” value ([1]; indomethacin 0.2 w/v % suspension, 0.0001 to 0.01 w/v % HPMC) was “the drug being rapidly redispersed without aggregation”, the “condition of the redispersed particles” value [1, 3] was “the dispersed particles aggregated and floated, failing to give a uniform suspension” and the redispersion time [1, 3] was at most 7 s. The redispersion time ([1]; indomethacin 0.2 w/v % suspension, HPMC over 0.01 w/v %) was “exceeding 12 seconds”, the “condition of the redispersed particles” value ([1]; indomethacin 1.0 w/v % suspension, 0.0005 to 0.005 w/v % HPMC) was “the drug particles being rapidly redispersed without aggregation” and the redispersion time ([1]; indomethacin 1.0 w/v % suspension, HPMC exceeded 0.005 w/v %) was “more than 20 seconds”. The “condition of the redispersed particles” value [1, 4] was “the dispersed particles aggregated and floated, failing to give a uniform suspension”, the redispersion time [1, 4] was “not more than 7 seconds” and the surface tension ([2]; indomethacin 0.2 w/v % suspension, 0.01 w/v % HPMC) was 48 mN/m. The “HPMC concentration at which the decrease in surface tension almost ceased” value (from here on “HPMC concentration at which the decrease”) [2, 5] was 0.01 w/v %, the “HPMC concentration at which the surface tension began to decline” value (“HPMC concentration … to decline” for short) [2, 5] was 0.0001 w/v % and the surface tension ([2]; indomethacin 0.2 w/v % suspension, HPMC less than 0.0001 w/v %) was about 72 mN/m. For the same compound, the surface tension ([2]; indomethacin 1.0 w/v % suspension, 0.005 w/v % HPMC) was 49.7 mN/m, the “HPMC concentration at which the decrease” value [2, 6] was 0.005 w/v % and the “HPMC concentration … to decline” value [2, 6] was 0.0005 w/v %. The surface tension ([2]; indomethacin 1.0 w/v % suspension, HPMC below 0.0005 w/v %) was about 72.73 mN/m.

In the case of `CC(=O)[C@@]1(O)CC[C@H]2[C@@H]3C[C@H](C)C4=CC(=O)C=C[C@]4(C)[C@@]3(F)[C@@H](O)C[C@@]21C` [fluorometholone], the “condition of the dispersion” value [1, 7] is reported as “satisfactory”, the “time required for redispersion” value [1, 7] is reported as “about 6 seconds” and the “condition of the redispersed particles” value [1, 8] is reported as “the dispersed particles aggregated and floated, failing to give a uniform suspension”. The “time required for redispersion” value [1, 8] was 2 s, the “condition of the redispersed particles” value [1, 9] was “a uniform suspension was obtained without aggregation of suspended particles” and the redispersion time [1, 9] was “less than 4 seconds”. For the same compound, the “condition of the redispersed particles” value ([1]; fluorometholone 0.1 w/v % suspension, 0.0001 to 0.01 w/v % MC) was “redispersion taking place rapidly without aggregation of dispersed particles”, the “condition of the dispersion” value [1, 10] was “satisfactory” and the “time necessary for redispersion” value [1, 10] was “about 6 seconds”. For the same compound, the redispersion time ([1]; fluorometholone 0.1 w/v % suspension, HPMC over 0.01 w/v %) was “exceeded 5 seconds”, the “condition of the redispersed particles” value [1, 11] was “the dispersed particles aggregated and floated, failing to give a uniform suspension” and the redispersion time [1, 11] was at most 2 s. For the same compound, the redispersion time ([1]; fluorometholone 0.1 w/v % suspension, MC over 0.01 w/v %) was about 20 s, the redispersion time ([1]; fluorometholone 0.1 w/v % suspension, PVP in excess of 0.002 w/v %) was at least 18 s and the surface tension ([2]; fluorometholone 0.05 w/v % suspension, 0.0001 w/v % HPMC) was 65.1 mN/m. The surface tension ([2]; fluorometholone 0.05 w/v % suspension, 0.001 w/v % PVP) was 69.5 mN/m, the surface tension ([2]; fluorometholone 0.05 w/v % suspension, 0.002 w/v % HPMC) was 50.5 mN/m and the “HPMC concentration at which the decrease” value [2, 12] was 0.002 w/v %. For the same compound, the “HPMC concentration … to decline” value [2, 12] was 0.0001 w/v %, the “PVP concentration at which the decrease in surface tension almost ceased” value ([2]; fluorometholone 0.05 w/v % suspension, PVP) was 0.001 w/v % and the surface tension ([2]; fluorometholone 0.05 w/v % suspension, PVP at the concentration where the decline began (printed 0.0902 w/v % PVC)) was 72.3 mN/m. The surface tension ([2]; fluorometholone 0.1 w/v % suspension, 0.002 w/v % PVP) was 69.5 mN/m, the surface tension ([2]; fluorometholone 0.1 w/v % suspension, 0.01 w/v % MC) was 54.5 mN/m and the “HPMC concentration at which the decrease” value [2, 13] was 0.01 w/v. The “HPMC concentration … to decline” value [2, 13] was 0.0001 w/v %, the “MC concentration at which the decrease in surface tension almost ceased” value [2, 14] was 0.01 w/v % and the “MC concentration at which the surface tension began to decline” value [2, 14] was 0.0001 w/v %. The surface tension ([2]; fluorometholone 0.1 w/v % suspension, MC 0.0001 w/v % and below) was about 72.5 mN/m, the “PVP concentration at which the decrease in surface tension almost ceased” value [2, 15] was 0.002 w/v % and the “PVP concentration at which the surface tension began to decline” value [2, 15] was 0.0003 w/v %. It also gave a surface tension ([2]; fluorometholone 0.1 w/v % suspension, PVP less than 0.0003 w/v %) of about 72.5 mN/m.

Reference: patent US6683070B2, “Aqueous suspension with good redispersibility” (Senju Pharmaceutical Co., Ltd., priority 1997, dated 2004)
